The values that follow come from US20210255193A1, “LYSINE REACTIVE PROBES AND USES THEREOF” (The Scripps Research Institute, priority 2017, published 2021).

Each structure is given as a SMILES string.

What all share (assay): competitive isoTOP-ABPP
Common to all, as to assay type: binding

Test [1] concerns the target T1, LRRC20 Leucine-rich repeat-containing protein 20 (Homo sapiens, UniProt Q8TCA0).
T1 construct: isoTOP-ABPP experiments performed in cell lysates (in vitro); endogenous in cells; host or cells: soluble proteome of human cancer cell lines (MDA-MB-231; Ramos and Jurkat also prepared)
T1 sequence (Q8TCA0 1-184): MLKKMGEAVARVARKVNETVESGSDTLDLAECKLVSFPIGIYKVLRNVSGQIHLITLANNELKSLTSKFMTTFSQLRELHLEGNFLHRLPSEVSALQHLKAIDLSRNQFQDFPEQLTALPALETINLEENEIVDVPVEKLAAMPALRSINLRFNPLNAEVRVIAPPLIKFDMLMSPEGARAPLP
The settings on record: for isoTOP-ABPP ratio (R) at liganded lysine Q8TCA0_K43: sol, 231; for isoTOP-ABPP ratio, lysine Q8TCA0_K43: 50 uM_231_sol_in vitro. An outline of the steps:
(§1)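 Readout: isotopic light/heavy MS1 peak-area ratio (R, DMSO heavy over compound light), median across peptides sharing a modified lysine. Lysate received fragment (activated esters 50 μM, guanidinylating agents 100 μM final) or DMSO, then 0.1 mM STP-alkyne probe for 1 h at ambient temperature.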

For test [2], the target named is T2, DNMT1 DNA (cytosine-5)-methyltransferase 1 (Homo sapiens, UniProt P26358).
T2 construct: isoTOP-ABPP experiments performed in cell lysates (in vitro); endogenous in cells; host or cells: soluble proteome of human cancer cell lines (MDA-MB-231; Ramos and Jurkat also prepared)
T2 sequence (P26358 whole entry): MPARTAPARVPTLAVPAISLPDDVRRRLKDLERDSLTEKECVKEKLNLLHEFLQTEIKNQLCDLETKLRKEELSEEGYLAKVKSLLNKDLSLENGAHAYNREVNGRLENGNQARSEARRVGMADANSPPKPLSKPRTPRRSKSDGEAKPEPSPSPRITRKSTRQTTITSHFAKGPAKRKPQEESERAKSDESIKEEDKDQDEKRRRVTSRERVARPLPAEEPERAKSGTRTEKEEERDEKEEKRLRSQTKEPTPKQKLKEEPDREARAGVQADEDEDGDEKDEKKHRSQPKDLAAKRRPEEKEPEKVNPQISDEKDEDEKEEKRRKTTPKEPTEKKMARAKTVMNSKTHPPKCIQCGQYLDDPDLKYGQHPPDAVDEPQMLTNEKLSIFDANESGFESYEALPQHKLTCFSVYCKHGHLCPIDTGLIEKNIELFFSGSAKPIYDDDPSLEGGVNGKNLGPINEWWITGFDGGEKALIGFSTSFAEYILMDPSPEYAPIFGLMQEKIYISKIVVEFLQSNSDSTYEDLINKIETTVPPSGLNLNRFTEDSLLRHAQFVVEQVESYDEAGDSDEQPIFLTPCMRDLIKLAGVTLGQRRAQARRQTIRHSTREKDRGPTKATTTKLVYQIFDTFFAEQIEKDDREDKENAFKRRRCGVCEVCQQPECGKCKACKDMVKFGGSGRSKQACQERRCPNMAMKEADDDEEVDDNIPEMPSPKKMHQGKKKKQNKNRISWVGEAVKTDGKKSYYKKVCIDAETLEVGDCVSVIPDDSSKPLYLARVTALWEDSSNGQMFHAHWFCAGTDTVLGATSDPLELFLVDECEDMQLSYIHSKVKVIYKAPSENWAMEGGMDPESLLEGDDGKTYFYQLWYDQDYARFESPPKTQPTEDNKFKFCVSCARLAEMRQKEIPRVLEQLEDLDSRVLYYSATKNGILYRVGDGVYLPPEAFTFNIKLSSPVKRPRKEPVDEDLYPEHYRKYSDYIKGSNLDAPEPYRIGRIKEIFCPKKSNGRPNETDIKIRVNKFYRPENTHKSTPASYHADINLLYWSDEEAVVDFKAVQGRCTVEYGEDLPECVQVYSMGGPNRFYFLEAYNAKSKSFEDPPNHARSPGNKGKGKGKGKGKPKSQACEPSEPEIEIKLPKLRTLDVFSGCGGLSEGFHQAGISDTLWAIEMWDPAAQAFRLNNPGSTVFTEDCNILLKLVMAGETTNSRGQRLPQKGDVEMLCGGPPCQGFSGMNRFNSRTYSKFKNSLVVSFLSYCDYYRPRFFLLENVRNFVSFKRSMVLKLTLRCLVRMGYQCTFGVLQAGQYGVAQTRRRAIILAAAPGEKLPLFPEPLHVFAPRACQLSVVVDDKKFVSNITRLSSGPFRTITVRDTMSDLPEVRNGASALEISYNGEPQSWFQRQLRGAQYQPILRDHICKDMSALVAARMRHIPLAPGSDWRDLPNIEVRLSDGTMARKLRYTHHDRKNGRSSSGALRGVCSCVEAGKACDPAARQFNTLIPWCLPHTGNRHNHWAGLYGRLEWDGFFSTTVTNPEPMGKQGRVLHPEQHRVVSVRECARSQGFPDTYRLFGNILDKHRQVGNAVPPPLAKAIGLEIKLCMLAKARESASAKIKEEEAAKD
Conditions: for isoTOP-ABPP ratio, lysine P26358_K45: 50 uM_231_sol_in vitro. In outline:
as §1

Test [3] has as its target T3, TTR Transthyretin (Homo sapiens, UniProt P02766).
T3 construct: isoTOP-ABPP experiments performed in cell lysates (in vitro); endogenous in cells; host or cells: MDA-MB-231 soluble lysate
Conditions: for isoTOP-ABPP ratio (R) at liganded lysine P02766_K35: sol, 231; for isoTOP-ABPP ratio, lysine P02766_K35: 50 uM_231_sol_in vitro. An outline of the steps:
as §1

The target in test [4] is T4, IMPDH1 Inosine-5-monophosphate dehydrogenase 1 (Homo sapiens, UniProt P20839).
T4 construct: isoTOP-ABPP experiments performed in cell lysates (in vitro); endogenous in cells; host or cells: soluble proteome of human cancer cell lines (MDA-MB-231; Ramos and Jurkat also prepared)
T4 sequence (P20839 whole entry): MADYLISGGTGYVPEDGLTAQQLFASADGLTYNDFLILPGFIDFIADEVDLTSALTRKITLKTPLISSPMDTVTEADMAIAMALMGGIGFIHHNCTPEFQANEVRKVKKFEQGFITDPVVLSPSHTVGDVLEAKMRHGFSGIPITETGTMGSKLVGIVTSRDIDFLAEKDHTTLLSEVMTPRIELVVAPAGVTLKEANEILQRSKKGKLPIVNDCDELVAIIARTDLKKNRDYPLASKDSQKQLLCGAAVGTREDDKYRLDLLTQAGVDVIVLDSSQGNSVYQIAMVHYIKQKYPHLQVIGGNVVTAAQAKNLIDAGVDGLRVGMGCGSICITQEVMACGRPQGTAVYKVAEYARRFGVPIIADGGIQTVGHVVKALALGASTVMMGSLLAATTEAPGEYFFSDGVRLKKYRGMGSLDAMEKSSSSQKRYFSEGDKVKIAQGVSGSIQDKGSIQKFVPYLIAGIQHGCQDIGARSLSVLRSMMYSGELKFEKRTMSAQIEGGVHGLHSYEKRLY
Conditions: for isoTOP-ABPP ratio (R) at liganded lysine P20839_K208: 50 uM, in vitro, sol, 231. An outline of the steps: as §1

The target in test [5] is T5, IFIT3 Interferon-induced protein with tetratricopeptide (Homo sapiens, UniProt O14879).
T5 construct: isoTOP-ABPP experiments performed in cell lysates (in vitro); endogenous in cells; host or cells: MDA-MB-231 soluble lysate
T5 sequence (O14879 1-490): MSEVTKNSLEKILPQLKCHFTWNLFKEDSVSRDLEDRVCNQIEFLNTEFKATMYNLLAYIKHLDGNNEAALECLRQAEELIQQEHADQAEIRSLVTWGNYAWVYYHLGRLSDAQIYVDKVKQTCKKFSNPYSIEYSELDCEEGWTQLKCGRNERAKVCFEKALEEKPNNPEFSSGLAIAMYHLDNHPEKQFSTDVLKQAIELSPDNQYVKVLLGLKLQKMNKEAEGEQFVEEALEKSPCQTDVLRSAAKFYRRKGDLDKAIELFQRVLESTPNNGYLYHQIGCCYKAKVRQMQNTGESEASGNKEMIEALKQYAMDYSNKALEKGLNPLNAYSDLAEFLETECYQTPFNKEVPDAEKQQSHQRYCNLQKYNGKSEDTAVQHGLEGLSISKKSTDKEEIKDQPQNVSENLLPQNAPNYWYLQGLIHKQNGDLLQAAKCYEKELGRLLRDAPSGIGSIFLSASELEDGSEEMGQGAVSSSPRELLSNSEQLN
The settings on record: for isoTOP-ABPP ratio, lysine O14879_K148: 50 uM_231_sol_in vitro. In outline: as §1

For test [6], the target named is T6, EEF1G Elongation factor 1-gamma (Homo sapiens, UniProt P26641).
T6 construct: isoTOP-ABPP experiments performed in cell lysates (in vitro); endogenous in cells; host or cells: soluble proteome of human cancer cell lines (MDA-MB-231; Ramos and Jurkat also prepared)
T6 sequence (P26641 whole entry): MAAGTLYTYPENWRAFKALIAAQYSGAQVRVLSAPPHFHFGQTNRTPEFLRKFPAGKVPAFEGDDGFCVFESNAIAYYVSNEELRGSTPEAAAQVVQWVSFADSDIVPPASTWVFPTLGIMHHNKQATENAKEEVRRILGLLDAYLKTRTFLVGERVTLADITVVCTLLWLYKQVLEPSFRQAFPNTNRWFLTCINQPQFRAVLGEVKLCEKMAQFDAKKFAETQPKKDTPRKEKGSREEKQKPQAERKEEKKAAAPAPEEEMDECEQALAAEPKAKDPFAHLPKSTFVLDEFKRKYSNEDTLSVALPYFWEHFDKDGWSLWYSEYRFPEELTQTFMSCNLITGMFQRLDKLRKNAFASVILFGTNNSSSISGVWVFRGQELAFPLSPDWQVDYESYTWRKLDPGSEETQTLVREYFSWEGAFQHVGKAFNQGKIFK
The settings on record: for isoTOP-ABPP ratio (R) at liganded lysine P26641_K227: 50 uM, in vitro, sol, 231; for isoTOP-ABPP ratio, lysine P26641_K227: 50 uM_231_sol_in vitro. In outline:
as §1

With `Cn1cc(CC(=O)Oc2ccc([N+](=O)[O-])cc2[N+](=O)[O-])c2ccccc21` [fragment 32, 2,4-Dinitrophenyl 2-(1-methyl-1H-indol-3-yl)acetate], in test [1] (50 uM, 231 sol, in vitro), the “isoTOP-ABPP reactivity ratio at lysine Q8TCA0_K43” value was determined as 1.6. For the same molecule, in test [2] (50 uM, 231 sol, in vitro), the “isoTOP-ABPP reactivity ratio at lysine P26358_K45” value stood at 1.0. Besides, the “isoTOP-ABPP reactivity ratio at lysine P02766_K35” value in test [3] (50 uM, 231 sol, in vitro) turned out to be 3.1.
For `O=C(Oc1ccc([N+](=O)[O-])cc1[N+](=O)[O-])C1CCN(C(=O)OCc2ccccc2)CC1` [fragment 34, 1-Benzyl 4-(2,4-dinitrophenyl) piperidine-1,4-dicarboxylate], the “isoTOP-ABPP ratio (R) at liganded lysine P02766_K35” value in test [3] (50 uM, in vitro) was found to be 2.2.
As to `O=C(Oc1ccc([N+](=O)[O-])cc1[N+](=O)[O-])c1ccc2ccccc2n1` [fragment 35, 2,4-Dinitrophenyl quinoline-2-carboxylate], the “isoTOP-ABPP ratio (R) at liganded lysine Q8TCA0_K43” value in test [1] (50 uM, in vitro) was 1.0. Moreover, in test [3] (50 uM, in vitro), the “isoTOP-ABPP ratio (R) at liganded lysine P02766_K35” value is reported as 15.6.
Take `O=C(CC12CC3CC(CC(C3)C1)C2)Oc1ccc([N+](=O)[O-])cc1[N+](=O)[O-]` [fragment 38, 2,4-Dinitrophenyl 2-(adamantan-1-yl)acetate]: the “isoTOP-ABPP ratio (R) at liganded lysine P20839_K208” value in test [4] worked out at 1.2. The “isoTOP-ABPP ratio (R) at liganded lysine P02766_K35” value in test [3] (50 uM, in vitro) is 1.2.
Consider `O=C(Oc1ccc([N+](=O)[O-])cc1[N+](=O)[O-])c1ccc(Oc2ccccc2)cc1` [fragment 39, 2,4-Dinitrophenyl 4-phenoxybenzoate], for which, in test [1] (50 uM, in vitro), the “isoTOP-ABPP ratio (R) at liganded lysine Q8TCA0_K43” value is 0.9. The “isoTOP-ABPP ratio (R) at liganded lysine P26358_K45” value in test [2] (50 uM, in vitro, sol, 231) is 1.0. Moreover, the “isoTOP-ABPP ratio (R) at liganded lysine P02766_K35” value in test [3] (50 uM, in vitro) was 2.2. The “isoTOP-ABPP ratio (R) at liganded lysine O14879_K148” value in test [5] (50 uM, in vitro, sol, 231) worked out at 1.4.
As to `CC(C)(C)OC(=O)NCCCC(=O)Oc1ccc([N+](=O)[O-])cc1[N+](=O)[O-]` [fragment 41, 2,4-Dinitrophenyl 4-((tert-butoxycarbonyl)amino)butanoate], the “isoTOP-ABPP ratio (R) at liganded lysine P20839_K208” value in test [4] is on record as 1.2. Moreover, in test [3] (50 uM, in vitro), the “isoTOP-ABPP ratio (R) at liganded lysine P02766_K35” value worked out at 3.4. Also, the “isoTOP-ABPP ratio (R) at liganded lysine P26641_K227” value in test [6] is listed as 0.8.
On to `CC(=O)Oc1ccc([N+](=O)[O-])cc1[N+](=O)[O-]` [fragment 43, 2,4-Dinitrophenyl acetate], for which, in test [1] (50 uM, in vitro), the “isoTOP-ABPP ratio (R) at liganded lysine Q8TCA0_K43” value is given as 1.2. Moreover, in test [4], the “isoTOP-ABPP ratio (R) at liganded lysine P20839_K208” value is 1.3. In test [6], the “isoTOP-ABPP ratio (R) at liganded lysine P26641_K227” value is listed as 2.3.
As to `N#Cc1ccc(C(=O)Oc2ccc([N+](=O)[O-])cc2[N+](=O)[O-])cc1` [fragment 44, 2,4-Dinitrophenyl 4-cyanobenzoate], the “isoTOP-ABPP ratio, lysine Q8TCA0_K43” value in test [1] is 1.1. The “isoTOP-ABPP ratio, lysine P26358_K45” value in test [2] is 0.7. Also, in test [3], the “isoTOP-ABPP ratio, lysine P02766_K35” value stood at 20.0. Moreover, the “isoTOP-ABPP ratio, lysine P26641_K227” value in test [6] was 0.8. Moreover, the “isoTOP-ABPP ratio, lysine O14879_K148” value in test [5] is listed as 2.2.
In the case of `O=C(ON1C(=O)CCC1=O)c1cc(C(F)(F)F)cc(C(F)(F)F)c1` [fragment 46, 3,5-Bis(trifluoromethyl)benzoic acid NHS ester], the “isoTOP-ABPP ratio, lysine Q8TCA0_K43” value in test [1] turned out to be 1.3. Also, the “isoTOP-ABPP ratio, lysine P26358_K45” value in test [2] is given as 2.4. In addition, in test [3], the “isoTOP-ABPP ratio, lysine P02766_K35” value is on record as 2.3. For the same molecule, the “isoTOP-ABPP ratio, lysine P26641_K227” value in test [6] was 0.6. In addition, the “isoTOP-ABPP ratio, lysine O14879_K148” value in test [5] was 2.2.
As to `O=C(Oc1c(F)c(F)c(C(F)(F)F)c(F)c1F)c1cc(C(F)(F)F)cc(C(F)(F)F)c1` [fragment 47, 2,3,5,6-Tetrafluoro-4-(trifluoromethyl)phenyl 3,5-bis(trifluoromethyl)benzoate], the “isoTOP-ABPP ratio, lysine P20839_K208” value in test [4] (50 uM_231_sol_in vitro) is on record as 1.2. Besides, the “isoTOP-ABPP ratio, lysine P02766_K35” value in test [3] was 1.6.
`O=C(Oc1c(F)c(F)cc(F)c1F)c1cc(C(F)(F)F)cc(C(F)(F)F)c1` [fragment 48, 2,3,5,6-Tetrafluorophenyl 3,5-bis(trifluoromethyl)benzoate]: in test [2], the “isoTOP-ABPP ratio, lysine P26358_K45” value worked out at 1.1. In addition, the “isoTOP-ABPP ratio, lysine O14879_K148” value in test [5] stood at 0.7.
On to `NC(=O)c1cc(C(F)(F)F)cc(C(F)(F)F)c1` [fragment 51, reference compound], for which the “isoTOP-ABPP ratio, lysine P26641_K227” value in test [6] worked out at 0.9.
